Measurements reported in US12570639B2, “Tetrahydroquinoline derivative and medicinal use thereof” (Toray Industries, Inc., priority 2020, dated 2026).
pEC50: −log10 of the molar value. Counter-ions that a name gives are not always drawn. Each block holds one compound with its values, some of them ahead of it.

What was measured:
[1] = test system: MOG-induced experimental autoimmune encephalomyelitis mouse model; experiment: Activity assessment 1 in MOG-induced experimental autoimmune encephalomyelitis mouse model; assay type: in vivo, C57BL/6J mice; settings: 30 mg/kg orally twice daily for 15 days starting 55 days after MOG35-55 inoculation
Method: The effect of the compound of Example 1 on increase of neurological score was assessed in the MOG-induced experimental autoimmune encephalomyelitis mouse model. The MOG-induced experimental autoimmune encephalomyelitis mouse model was produced according to the method of Jianfeng et al. (The Journal of Immunology, 2009, vol. 182, p. 4036-4045) with partial modification. A PBS solution prepared to contain a synthetic partial peptide of MOG (MOG35-55; CSBio) at a concentration of 4 mg/mL was mixed with an equal volume of Freund's complete adjuvant, and a total of 0.1 mL (0.05 mL per flank) of the resulting MOG35-55 dosing solution was inoculated intradermally into the bilateral flanks of C57BL/6J mice (male, 10 weeks old, Charles River Laboratories Japan, Inc.). On the day of inoculation of the MOG35-55 dosing solution and on the second day after the inoculation, 200 μL of pertussis toxin (Sigma Co. LLC) prepared at a concentration of 1 μg/mL was further administered intraperitoneally to the mice. A test compound was administered orally at a dose of 30 mg/kg twice daily for a period of 15 days starting 55 days after the inoculation of the MOG35-55 dosing solution. The test compound was suspended in a 0.5% methylcellulose solution (hereinafter referred to as vehicle), and the resulting suspension was used. […]

[2] = test system: Human fibrosarcoma cells (HT-1080 cells); experiment: In vitro inhibitory action against ferroptosis (Erastin-induced cell death, Cell Counting Kit-8); assay type: cell-based; settings: Erastin 3 μmol/L, 24 hours
[3] = In vitro radical scavenging action (DPPH method); settings: 30 minutes at room temperature, maximum concentration 100 μmol/L
Method: Radical scavenging action was evaluated using the DPPH method in the compound of Comparative Example 1, which is a tetrahydroquinoxaline derivative, and in the tetrahydroquinoline derivative (I) or a pharmaceutically acceptable salt thereof. The DPPH method was performed using an antioxidant capacity measurement kit (Dojindo Laboratories).
A test compound was dissolved in DMSO, and the resulting solution was then mixed with an assay buffer and a DPPH solution, which are included in the kit, to a total volume of 200 μL to obtain a final concentration of 10% DMSO, and the reaction was allowed to proceed. Wells added with 100 μmol/L ferrostatin-1, a radical scavenger, were grouped as “control,” and wells added with not test compound were grouped as “background.” The test compound was serially diluted 3-fold starting from a maximum concentration of 100 μmol/L, and the diluted test compound (1.2, 3.7, 11.1, 33.3, or 100 μmol/L) was added and allowed to react at room temperature. Thirty minutes after the reaction, the absorbance at 517 nm was measured, and the average absorbance value was calculated (N=2). The radical scavenging action of the test compound (hereinafter referred to as radical scavenging rate, %) was calculated based on the equation 2 below. The EC50 value of the test compound was calculated from the radical scavenging rate. Radical scavenging rate (%)=[1−{(Average absorbance value at 517 nm measured when a test compound is added)−(Average absorbance value at 517 nm measured in the background)}/{(Average absorbance value at 517 nm measured in the control)−(Average absorbance value at 517 nm measured in the background)}]×100 Equation 2
A note “no detection of radical scavenging action (N.D.),” is given to compounds with a EC50 of >100 μmol/L.

[4] = test system: MOG-induced experimental autoimmune encephalomyelitis mouse model; experiment: Activity assessment 2 in MOG-induced experimental autoimmune encephalomyelitis mouse model; assay type: in vivo, C57BL/6J mice; settings: 30 mg/kg orally twice daily for 15 days starting 50 days after MOG35-55 inoculation; vs vehicle-dosing group (1.93)
Method: (§1) A PBS solution prepared to contain a synthetic partial peptide of MOG (MOG35-55; CSBio) at a concentration of 4 mg/mL was mixed with an equal volume of Freund's complete adjuvant, and a total of 0.1 mL (0.05 mL per flank) of the resulting MOG35-55 dosing solution was inoculated intradermally into the bilateral flanks of C57BL/6J mice (male, 10 weeks old, Charles River Laboratories Japan, Inc.). On the day of inoculation of the MOG35-55 dosing solution and on the second day after the inoculation, 200 μL of pertussis toxin (Sigma Co. LLC) prepared at a concentration of 1 μg/mL was further administered intraperitoneally to the mice.
(§2) The compound of Example 11, the compound of Example 32, and the compound of Example 36 were used as test compounds to assess the effect of the test compounds on increase of neurological score in the MOG-induced experimental autoimmune encephalomyelitis mouse model. The study was performed in the same manner as in Example 175, except that the start day for administrating a test compound, the scoring method, and the timing of determining the neurological score were changed from those in Example 175. Each test compound was administered orally at a dose of 30 mg/kg twice daily for a period of 15 days starting 50 days after the inoculation of the MOG35-55 dosing solution. In addition, the score was determined by the following criteria: 0, normal; 0.5, partial drooping tail; 1, full drooping tail or hind-limb weakness; 2, full drooping tail and hind-limb weakness; 3, hind-limb partial paralysis; 4, hind-limb complete paralysis; 5, fore- and hind-limb complete paralysis.
The vertical axis represents neurological score (mean±standard error, n=7 or 8). On the horizontal axis, “Vehicle” represents the vehicle-dosing group, and “Compound of Example 11” represents the compound of Example 11—dosing group, and “Compound of Example 32” represents the compound of Example 32—dosing group, and “Compound of Example 36” represents the compound of Example 36—dosing group.

[5] = test system: MOG-induced experimental autoimmune encephalomyelitis mouse model; experiment: Activity assessment 4 in MOG-induced experimental autoimmune encephalomyelitis mouse model; assay type: in vivo, C57BL/6J mice; settings: 10 mg/kg orally twice daily for 16 days starting 52 days after MOG35-55 inoculation; vs vehicle-dosing group (2.25)
Method: as §1
The compound of Example 11, the compound of Example 32, and the compound of Example 36 were used as test compounds to assess the effect of the test compounds on increase of neurological score in the MOG-induced experimental autoimmune encephalomyelitis mouse model. […] In addition, the score was determined by the following criteria: 0, normal; 0.5, partial drooping tail; 1, full drooping tail or hind-limb weakness; 2, full drooping tail and hind-limb weakness; 3, hind-limb partial paralysis; 4, hind-limb complete paralysis; 5, fore- and hind-limb complete paralysis. […]

[6] = test system: MOG-induced experimental autoimmune encephalomyelitis mouse model; experiment: Activity assessment 3 in MOG-induced experimental autoimmune encephalomyelitis mouse model; assay type: in vivo, C57BL/6J mice; settings: 10 mg/kg orally twice daily for 10 days starting 53 days after MOG35-55 inoculation; vs vehicle-dosing group (2.25)
Method: as §1, §2
The compound of Example 144, the compound of Example 171, and the compound of Example 172 were used as test compounds to assess the effect of the test compounds on increase of neurological score in the MOG-induced experimental autoimmune encephalomyelitis mouse model. […]

[7] = evaluation concentration 30 μmol/L
[8] = evaluation concentration 10 μmol/L

SMILES: Cl.c1ccc(C2CCc3ccccc3N2)cc1 (centres unmarked) [Example 1, 2-phenyl-1,2,3,4-tetrahydroquinoline hydrochloride]
- neurological score ([1]; next day after last administration, mean, n=7): 1.29
- neurological score reduction rate ([1]; vs vehicle-dosing group (2.43)): 46.9%
- Ferroptosis inhibition rate (%) [2, 7]: 110.5%
- pEC50 [3]: < 4.00

SMILES: c1ccc2c(c1)CCC(c1cn[nH]c1)N2 (centres unmarked) [Example 11, 2-(1H-pyrazol-4-yl)-1,2,3,4-tetrahydroquinoline]
- neurological score reduction rate [4]: 54.4%
- Ferroptosis inhibition rate (%) ([2]; evaluation concentration 50 μmol/L): 106.0%

SMILES: NS(=O)(=O)c1ccc(C2CCc3ccccc3N2)cc1 (centres unmarked) [Example 32, 4-(1,2,3,4-tetrahydroquinolin-2-yl)benzenesulfonamide]
- neurological score reduction rate [4]: 55.4%
- Ferroptosis inhibition rate (%) [2, 7]: 100.5%
- pEC50 [3]: < 4.00

SMILES: NC(=O)c1ccc(C2CCc3ccccc3N2)cc1 (centres unmarked) [Example 36, 4-(1,2,3,4-tetrahydroquinolin-2-yl)benzamide]
- neurological score reduction rate [4]: 45.1%
- Ferroptosis inhibition rate (%) [2, 7]: 98.76%
- pEC50 [3]: < 4.00

SMILES: NS(=O)(=O)c1ccc(C2CNc3ccccc3C2)cc1 (centres unmarked) [Example 171, 4-(1,2,3,4-tetrahydroquinolin-3-yl)benzenesulfonamide]
- neurological score reduction rate [6]: 47.2%
- Ferroptosis inhibition rate (%) [2, 7]: 90.71%

SMILES: NS(=O)(=O)c1ccc(C2CNc3ccccc3C2)cc1 (centres unmarked) [Example 172, 4-(1,2,3,4-tetrahydroquinolin-3-yl)benzenesulfonamide]
- neurological score reduction rate [6]: 27.8%
- Ferroptosis inhibition rate (%) [2, 7]: 92.87%

Now from value to compound, other results behind:

- pEC50 [3]: < 4.00
SMILES: NC(=O)c1ccc(C2CCc3ccccc3N2)cc1 (centres unmarked) [Example 38, 4-(1,2,3,4-tetrahydroquinolin-2-yl)benzamide]
- neurological score reduction rate [5]: 27.8%
- Ferroptosis inhibition rate (%) [2, 7]: 104.0%

- pEC50 [3]: < 4.00
SMILES: Cc1ccc2c(c1)CCC(c1ccc(S(N)(=O)=O)cc1)N2 (centres unmarked) [Example 119, 4-(6-methyl-1,2,3,4-tetrahydro-quinolin-2-yl)benzenesulfonamide]
- neurological score reduction rate [5]: 33.3%
- Ferroptosis inhibition rate (%) [2, 8]: 89.67%

- pEC50 [3]: < 4.00
SMILES: O=C(Cc1ccc2c(c1)CCC(c1ccccc1)N2)N1CC(O)C1 (centres unmarked) [Example 144, 1-(3-hydroxyazetidin-1-yl)-2-(2-phenyl-1,2,3,4-tetrahydroquinolin-6-yl)ethan-1-one hydrochloride]
- neurological score reduction rate [6]: 25.0%
- Ferroptosis inhibition rate (%) ([2]; evaluation concentration 30 μmol/L, hydrochloride): 96.14%

- pEC50 [3]: < 4.00
SMILES: O=C(Cc1ccc2c(c1)CCC(c1ccccc1)N2)N1CC(F)(F)C1 (centres unmarked) [Example 160, 1-(3,3-difluoroazetidin-1-yl)-2-(2-phenyl-1,2,3,4-tetrahydroquinolin-6-yl)ethan-1-one]
- Ferroptosis inhibition rate (%) [2, 8]: 99.11%

- pEC50 [3]: < 4.00
SMILES: O=C(Cc1ccc2c(c1)CCC(c1ccccc1)N2)N1CC(F)(F)C1 (centres unmarked) [Example 161, 1-(3,3-difluoroazetidin-1-yl)-2-(2-phenyl-1,2,3,4-tetrahydroquinolin-6-yl)ethan-1-one]
- Ferroptosis inhibition rate (%) [2, 8]: 94.01%
